pIC50: −log10 of the molar value. Read-outs that look alike come from different tables or passages of the source.

Usually pIC50 stands for the IC50 on a negative log10 scale, so that one unit is a factor of ten.

Common to all, as to type: biochemical
One experiment concerns the target T1, CDK1:Cyclin-B (Homo sapiens, UniProt P06493).
T1 construct: purchased New England Biolabs 6020; host or cells: insect cells
Kind of experiment: CDK1 Screening Assay. The settings on record: read-out: CDK1 IC50. The procedure, abridged:
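Human CDK1:cyclin-B (30 ng/well) with biotinylated histone-H1 peptide and ^33P-γ-ATP, 1 h at 30° C, 1% DMSO, on streptavidin FlashPlate; incorporation read by scintillation.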

Experiment [1] deals with T2, VEGF-R (vascular endothelial growth factor receptor-2) (Rattus norvegicus, UniProt O08775).
T2 construct: polyhistidine (6xHIS) (N)
In words: VEGF-R Screening Assay. Conditions: read-out: VEGF-R IC50.

Experiment [2] addresses T3, HER2 (human epidermal growth factor receptor-2) (Homo sapiens, UniProt P04626).
T3 construct: begins at amino acid 676 followed by the remainder of the HER2 cytoplasmic domain; polyhistidine (N)
Kind of experiment: Kinase Selectivity Assay HER2. The procedure, abridged: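 Radiometric Flashplate format: ^33P-γ-ATP transfer to immobilized biotinylated peptide, 1 h, 30° C, 1% DMSO final, enzyme in 50 mM Tris-HCl pH=8.0 + 0.1% BSA. Duplicate 8-point dilution, 100 uM down to 10 pM. IC50 from % inhibition of plate max signal versus log conc.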

[3] abbreviates: Kinase Selectivity, Tables 2a-2k.
Setting [4] is: Kinase Selectivity, Tables 2a-2k, read-out: HER2 Kinase IC50.

T1 sequence (P06493 whole entry): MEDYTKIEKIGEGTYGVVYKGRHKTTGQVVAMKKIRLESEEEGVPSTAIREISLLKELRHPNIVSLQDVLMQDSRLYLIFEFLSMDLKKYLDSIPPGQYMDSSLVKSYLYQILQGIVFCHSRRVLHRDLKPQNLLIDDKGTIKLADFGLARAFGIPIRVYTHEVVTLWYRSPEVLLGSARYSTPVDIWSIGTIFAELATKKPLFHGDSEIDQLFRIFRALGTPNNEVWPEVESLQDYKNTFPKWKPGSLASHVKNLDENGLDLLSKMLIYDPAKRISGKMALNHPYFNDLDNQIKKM
T1 sequence (P14635 whole entry partner): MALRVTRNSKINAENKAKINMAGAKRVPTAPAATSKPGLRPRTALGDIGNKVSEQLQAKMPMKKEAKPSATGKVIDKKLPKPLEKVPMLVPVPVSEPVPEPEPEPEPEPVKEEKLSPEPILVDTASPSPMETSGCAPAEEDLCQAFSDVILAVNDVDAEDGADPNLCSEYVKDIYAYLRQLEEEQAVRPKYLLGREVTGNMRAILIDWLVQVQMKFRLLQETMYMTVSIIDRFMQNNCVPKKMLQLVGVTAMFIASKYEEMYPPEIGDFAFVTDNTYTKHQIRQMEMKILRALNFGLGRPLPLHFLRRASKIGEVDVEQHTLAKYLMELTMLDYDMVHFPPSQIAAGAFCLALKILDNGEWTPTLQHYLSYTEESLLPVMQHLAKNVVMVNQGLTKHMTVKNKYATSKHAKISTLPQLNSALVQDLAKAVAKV
T2 sequence (O08775 786-1343): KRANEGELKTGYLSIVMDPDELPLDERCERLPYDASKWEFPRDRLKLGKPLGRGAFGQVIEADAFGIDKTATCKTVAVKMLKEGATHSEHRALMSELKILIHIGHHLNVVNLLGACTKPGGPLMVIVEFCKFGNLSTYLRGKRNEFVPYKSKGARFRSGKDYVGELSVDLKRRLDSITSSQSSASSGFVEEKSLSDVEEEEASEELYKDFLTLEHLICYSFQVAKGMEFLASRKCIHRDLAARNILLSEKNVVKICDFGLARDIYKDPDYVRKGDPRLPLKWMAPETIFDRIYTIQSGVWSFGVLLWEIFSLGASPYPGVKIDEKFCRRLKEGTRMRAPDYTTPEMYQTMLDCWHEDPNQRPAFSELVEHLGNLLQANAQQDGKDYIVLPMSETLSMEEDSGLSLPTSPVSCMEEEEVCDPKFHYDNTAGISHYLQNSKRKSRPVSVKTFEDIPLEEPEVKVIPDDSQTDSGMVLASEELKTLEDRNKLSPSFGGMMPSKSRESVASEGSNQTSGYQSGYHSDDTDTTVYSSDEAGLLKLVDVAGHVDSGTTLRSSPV
T3 sequence (P04626 676-1255 limits assumed): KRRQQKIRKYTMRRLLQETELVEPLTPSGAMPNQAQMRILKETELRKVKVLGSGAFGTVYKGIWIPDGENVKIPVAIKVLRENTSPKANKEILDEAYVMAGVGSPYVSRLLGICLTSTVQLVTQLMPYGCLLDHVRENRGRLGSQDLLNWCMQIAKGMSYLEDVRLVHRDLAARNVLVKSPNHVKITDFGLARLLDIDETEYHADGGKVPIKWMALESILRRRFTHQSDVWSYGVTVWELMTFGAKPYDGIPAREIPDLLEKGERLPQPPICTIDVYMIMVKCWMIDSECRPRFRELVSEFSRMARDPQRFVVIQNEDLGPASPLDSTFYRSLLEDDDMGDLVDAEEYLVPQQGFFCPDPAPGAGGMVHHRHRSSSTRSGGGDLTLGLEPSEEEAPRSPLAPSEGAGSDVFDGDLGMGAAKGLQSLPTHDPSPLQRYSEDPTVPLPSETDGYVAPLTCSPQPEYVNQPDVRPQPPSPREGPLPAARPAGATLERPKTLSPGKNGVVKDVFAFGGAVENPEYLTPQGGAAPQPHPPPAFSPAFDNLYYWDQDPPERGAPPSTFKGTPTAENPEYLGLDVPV

Regarding `Nc1nc(Nc2ccc(S(N)(=O)=O)cc2)nn1C(=O)c1c(F)cccc1F` [Cpd 1, 4-[[5-amino-1-(2,6-difluorobenzoyl)-1H-1,2,4-triazol-3-yl]amino]-benzenesulfonamide], the pIC50 at CDK1:Cyclin-B (setting [3]) was 8.22; on CDK1:Cyclin-B (Table 1), 8.19.
Turning to `Nc1nc(Nc2ccc(S(N)(=O)=O)cc2)nn1C(=O)c1cccs1` [Cpd 14, 4-[[5-amino-1-(2-thienylcarbonyl)-1H-1,2,4-triazol-3-yl]amino]-benzenesulfonamide], the negative logarithm of the IC50 (pIC50) is 8.35 at CDK1:Cyclin-B (setting [3]), 8.35 at CDK1:Cyclin-B (Table 1), 7.59 in experiment [1] (setting [3]) and 7.57 in experiment [1] (Table 1).
For `Nc1nc(Nc2ccc(S(N)(=O)=O)cc2)nn1C(=O)c1sccc1F` [Cpd 16, 4-[[5-amino-1-[(3-fluoro-2-thienyl)carbonyl]-1H-1,2,4-triazol-3-yl]amino]-benzenesulfonamide], the pIC50 on CDK1:Cyclin-B (setting [3]) was 7.68; at CDK1:Cyclin-B (Table 1), 8.68; in experiment [1] (setting [3]) it was 7.86; in experiment [1] (Table 1) it was 7.86.
Take `Nc1nc(Nc2ccc(S(N)(=O)=O)cc2)nn1C(=O)c1sccc1Cl` [Cpd 17, 4-[[5-amino-1-[(3-chloro-2-thienyl)carbonyl]-1H-1,2,4-triazol-3-yl]amino]-benzenesulfonamide]: the pIC50 at CDK1:Cyclin-B (setting [3]) is 8.60; at CDK1:Cyclin-B (Table 1), 8.60; in experiment [1] (setting [3]) it was 7.57; in experiment [1] (Table 1), 7.57.
For `Nc1nc(Nc2ccc(S(=O)(=O)N3CCCCC3)cc2)nn1C(=O)c1cccs1` [Cpd 23, N^3-[4-(1-piperidinylsulfonyl)phenyl]-1-(2-thienylcarbonyl)-1H-1,2,4-triazole-3,5-diamine], the pIC50 at CDK1:Cyclin-B (setting [3]) was 7.05; on CDK1:Cyclin-B (Table 1), 7.05; in experiment [1] (setting [3]), 7.46; in experiment [1] (Table 1), 7.45.
On to `Nc1nc(Nc2ccc(S(N)(=O)=O)cc2)nn1C(=O)c1ccsc1` [Cpd 30, 4-[[5-amino-1-(3-thienylcarbonyl)-1H-1,2,4-triazol-3-yl]amino]-benzenesulfonamide], for which the negative-log IC50 (pIC50) on CDK1:Cyclin-B (setting [3]) is 7.77; on CDK1:Cyclin-B (Table 1), 7.77; in experiment [1] (setting [3]), 7.39; in experiment [1] (Table 1), 7.39.
Consider `CCc1ccc(C(=O)n2nc(Nc3ccc(S(N)(=O)=O)cc3)nc2N)s1` [Cpd 32, 4-[[5-amino-1-[(5-ethyl-2-thienyl)carbonyl]-1H-1,2,4-triazol-3-yl]amino]-benzenesulfonamide], for which the negative-log IC50 (pIC50) at CDK1:Cyclin-B (setting [3]) is 8.52; on CDK1:Cyclin-B (Table 1), 8.51; in experiment [1] (setting [3]), 7.66; in experiment [1] (Table 1), 7.66; in experiment [2] (setting [4]) it was 8.05.
For `Cc1nc(C)c(C(=O)n2nc(Nc3ccc(S(N)(=O)=O)cc3)nc2N)s1` [Cpd 34, 4-[[5-amino-1-[(2,4-dimethyl-5-thiazolyl)carbonyl]-1H-1,2,4-triazol-3-yl]amino]-benzenesulfonamide], the pIC50 on CDK1:Cyclin-B (setting [3]) was 8.70; at CDK1:Cyclin-B (Table 1) it was 8.80.
Take `Nc1nc(Nc2ccc(S(N)(=O)=O)cc2)nn1C(=O)c1sccc1Br` [Cpd 35, 4-[[5-amino-1-[(3-bromo-2-thienyl)carbonyl]-1H-1,2,4-triazol-3-yl]amino]-benzenesulfonamide]: the pIC50 was 8.96 at CDK1:Cyclin-B (Table 1) and 7.33 in experiment [1] (Table 1).
Regarding `CC(C)(C)c1ccc(C(=O)n2nc(Nc3ccc(S(N)(=O)=O)cc3)nc2N)s1` [Cpd 51, 4-[[5-amino-1-[[5-(1,1-dimethylethyl)-2-thienyl]carbonyl]-1H-1,2,4-triazol-3-yl]amino]-benzenesulfonamide], the negative-log IC50 (pIC50) is 8.15 at CDK1:Cyclin-B (setting [3]); 8.15 on CDK1:Cyclin-B (Table 1); 7.72 in experiment [1] (setting [3]); 7.72 in experiment [1] (Table 1); 7.51 in experiment [2] (setting [4]); 7.51 in experiment [2] (Table 1, read-out: HER2 IC50).
On to `Cc1ccccc1C(=O)n1nc(Nc2ccc(S(N)(=O)=O)cc2)nc1N` [Cpd 57, 4-[[5-amino-1-(2-methylbenzoyl)-1H-1,2,4-triazol-3-yl]amino]-benzenesulfonamide], for which the negative logarithm of the IC50 (pIC50) at CDK1:Cyclin-B (setting [3]) was 7.17; on CDK1:Cyclin-B (Table 1), 7.17; in experiment [2] (setting [4]), 5.88; in experiment [2] (Table 1, read-out: HER2 IC50), 5.88.
As to `CC(O)c1ccc(F)c(C(=O)n2nc(Nc3ccc(S(N)(=O)=O)cc3)nc2N)c1F` (stereo not drawn) [Cpd 58, 4-[[5-amino-1-[2,6-difluoro-3-(1-hydroxyethyl)benzoyl]-1H-1,2,4-triazol-3-yl]amino]-benzenesulfonamide], the pIC50 was 7.85 at CDK1:Cyclin-B (setting [3]); 7.85 on CDK1:Cyclin-B (Table 1); 6.38 in experiment [1] (setting [3]); 6.38 in experiment [1] (Table 1); 6.18 in experiment [2] (setting [4]); 6.19 in experiment [2] (Table 1, read-out: HER2 IC50).
For `Cc1ccc(F)c(C(=O)n2nc(Nc3ccc(S(N)(=O)=O)cc3)nc2N)c1Cl` [Cpd 69, 4-[[5-amino-1-(2-chloro-6-fluoro-3-methylbenzoyl)-1H-1,2,4-triazol-3-yl]amino]-benzenesulfonamide], the negative logarithm of the IC50 (pIC50) on CDK1:Cyclin-B (setting [3]) and on CDK1:Cyclin-B (Table 1) was 7.64 in each case.
Take `Nc1nc(Nc2ccc(S(N)(=O)=O)cc2)nn1C(=O)c1c(F)cccc1Cl` [Cpd 70, 4-[[5-amino-1-(2-chloro-6-fluorobenzoyl)-1H-1,2,4-triazol-3-yl]amino]-benzenesulfonamide]: the pIC50 at CDK1:Cyclin-B (setting [3]) was 7.46; at CDK1:Cyclin-B (Table 1), 7.46; in experiment [2] (setting [4]) it was 5.91; in experiment [2] (Table 1, read-out: HER2 IC50), 5.91.
As for `CN1CCN(c2ccc(Nc3nc(N)n(C(=O)c4c(F)cccc4F)n3)cc2)CC1` [Cpd 71, 1-(2,6-difluorobenzoyl)-N^3-[4-(4-methyl-1-piperazinyl)phenyl]-1H-1,2,4-triazole-3,5-diamine], the pIC50 was 5.43 at CDK1:Cyclin-B (setting [3]); 5.43 on CDK1:Cyclin-B (Table 1); 6.37 in experiment [1] (setting [3]); 6.37 in experiment [1] (Table 1); 5.89 in experiment [2] (setting [4]); 5.89 in experiment [2] (Table 1, read-out: HER2 IC50).
As to `CNS(=O)(=O)c1ccc(Nc2nc(N)n(C(=O)c3c(F)cccc3F)n2)cc1` [Cpd 80, 4-[[5-amino-1-(2,6-difluorobenzoyl)-1H-1,2,4-triazol-3-yl]amino]-N-methyl-benzenesulfonamide], the negative logarithm of the IC50 (pIC50) at CDK1:Cyclin-B (Table 1) is 7.34; in experiment [1] (Table 1), 6.03; in experiment [2] (Table 1, read-out: HER2 IC50), 5.95.
Consider `CNS(=O)(=O)c1ccc(Nc2nc(N)n(C(=O)c3sccc3C)n2)cc1` [Cpd 82, 4-[[5-amino-1-[(3-methyl-2-thienyl)carbonyl]-1H-1,2,4-triazol-3-yl]amino]-N-methyl-benzenesulfonamide], for which the pIC50 on CDK1:Cyclin-B (setting [3]) and at CDK1:Cyclin-B (Table 1) was 8.05 throughout.
With `CCc1ccc(C(=O)n2nc(Nc3ccc(S(=O)(=O)NC)cc3)nc2N)s1` [Cpd 84, 4-[[5-amino-1-[(5-ethyl-2-thienyl)carbonyl]-1H-1,2,4-triazol-3-yl]amino]-N-methyl-benzenesulfonamide], the pIC50 at CDK1:Cyclin-B (setting [3]) was 8.40; at CDK1:Cyclin-B (Table 1), 8.42.
For `CCc1ccc(C(=O)n2nc(Nc3ccc(S(=O)(=O)NCCN(C)C)cc3)nc2N)s1` [Cpd 103, 4-[[5-amino-1-[(5-ethyl-2-thienyl)carbonyl]-1H-1,2,4-triazol-3-yl]amino]-N-[2-(dimethylamino)ethyl]-benzenesulfonamide], the pIC50 on CDK1:Cyclin-B (setting [3]) is 8.15; on CDK1:Cyclin-B (Table 1), 8.13; in experiment [1] (setting [3]), 7.35; in experiment [1] (Table 1) it was 7.35; in experiment [2] (setting [4]), 6.64; in experiment [2] (Table 1, read-out: HER2 IC50) it was 6.64.
On to `Cc1ccsc1C(=O)n1nc(Nc2ccc(S(=O)(=O)NCCN(C)C)cc2)nc1N` [Cpd 104, 4-[[5-amino-1-[(3-methyl-2-thienyl)carbonyl]-1H-1,2,4-triazol-3-yl]amino]-N-[2-(dimethylamino)ethyl]-benzenesulfonamide], for which the pIC50 was 8.80 at CDK1:Cyclin-B (setting [3]) and 7.81 on CDK1:Cyclin-B (Table 1).
In the case of `Cc1cc(C)c(C(=O)n2nc(Nc3ccc(NS(C)(=O)=O)cc3)nc2N)s1` [Cpd 108, N-[4-[[5-amino-1-[(3,5-dimethyl-2-thienyl)carbonyl]-1H-1,2,4-triazol-3-5 yl]amino]phenyl]-methanesulfonamide], the pIC50 on CDK1:Cyclin-B (setting [3]) was 7.18; at CDK1:Cyclin-B (Table 1), 7.18; in experiment [1] (setting [3]), 7.52; in experiment [1] (Table 1) it was 7.51; in experiment [2] (setting [4]), 7.38; in experiment [2] (Table 1, read-out: HER2 IC50) it was 7.38.
Take `Cc1ccsc1C(=O)n1nc(Nc2ccc(N3CCNC3=O)cc2)nc1N` [Cpd 113, 1-[4-[[5-amino-1-[(3-methyl-2-thienyl)carbonyl]-1H-1,2,4-triazol-3-yl]amino]phenyl]-2-imidazolidinone]: the pIC50 at CDK1:Cyclin-B (setting [3]) is 6.60; at CDK1:Cyclin-B (Table 1) it was 6.59; in experiment [1] (setting [3]) it was 7.52; in experiment [1] (Table 1), 7.52; in experiment [2] (setting [4]), 7.17; in experiment [2] (Table 1, read-out: HER2 IC50) it was 7.17.
Take `Nc1nc(Nc2ccc(N3CCCS3(=O)=O)cc2)nn1C(=O)c1c(F)cccc1F` [Cpd 117]: the negative logarithm of the IC50 (pIC50) in experiment [1] (setting [3]) and in experiment [1] (Table 1) was 6.04 throughout.
For the molecule `Cc1cc(C)c(C(=O)n2nc(Nc3ccc(S(=O)(=O)Nc4ccccn4)cc3)nc2N)s1` [Cpd 120], the pIC50 at CDK1:Cyclin-B (setting [3]) was 6.56; at CDK1:Cyclin-B (Table 1) it was 6.56; in experiment [1] (setting [3]), 7.09; in experiment [1] (Table 1) it was 7.09.
Consider `Cc1ccc(F)c(C(=O)n2nc(N)nc2Nc2ccc(S(N)(=O)=O)cc2)c1F` [Cpd 123, 4-[[3-amino-1-(2,6-difluoro-3-methylbenzoyl)-1H-1,2,4-triazol-5-yl]amino]-benzenesulfonamide], for which the pIC50 at CDK1:Cyclin-B (setting [3]) is 5.69; on CDK1:Cyclin-B (Table 1), 5.69; in experiment [2] (setting [4]), less than 4.00; in experiment [2] (Table 1, read-out: HER2 IC50), roughly 4.00.

Source of the values: patent publication US6924302B2, “Substituted triazole diamine derivatives as kinase inhibitors” (Ortho McNeil Pharmaceutical, Inc., priority 2000, dated 2005).
